Measured values reported in patent US20150218563A1, “COMPOSITIONS AND METHODS FOR MODULATION OF RORGAMMAT FUNCTIONS” (priority 2004, published 2015).

Test system: mRORγt
Test: shRNA inhibition of mRORγt expression in AKR1 cells, monitored by Western blot
Assay type: cell-based, mouse
Settings: AKR1 cells infected with retrovirus encoding the shRNA vs empty retroviral vector, HMG-1 loading control
From the text: FIG. 42. Delivery of siRNA Hairpins by a Retroviral vector. […] After the AKR1 cells were infected with these vectors, mRORγt expression was monitored by Western blot. HMG-1 was used as an internal loading control. […] The effect lasted for at least two to three weeks, as shown in the lower panel.
Two shRNA molecules were generated using the DNA sequence of SEQ ID NO: 3 (mouse RORγt). In particular, the nucleotides from position 358-378 of SEQ ID NO: 3 and from position 1269-1289 of SEQ ID NO: 3 (mouse RORγt) were used to generate shRNA molecules. These sequences are as follows:
When tested for the ability to inhibit expression of RORγt, as well as expression of a target molecule for RORgt, significant inhibition of expression was observed. (See FIGS. 42 and 43).

GGAACTGGCTTTCCATCATCA (expressed or natural sequence) [SEQ ID NO: 10]
inhibition of RORγt expression: shown to inhibit the expression of RORγt

GGAGCAGACACACTTACATAC (chemistry not given here) [SEQ ID NO: 9]
inhibition of RORγt expression: shown to inhibit the expression of RORγt
